Assay results taken from patent publication US20250145589A1, “PYRIDINE DERIVATIVE AND USE THEREOF” (SICHUAN HUIYU PHARMACEUTICAL CO., LTD., priority 2021, published 2025).
Where two headings read alike, the source gives them in different places.

Columns and labels:
[1] = target: PI3Kδ (Homo sapiens (Human), UniProt O00329); assay: Inhibition of PI3Kδ efficacy assay (ADP-Glo kinase assay); format: biochemical; conditions: read-out: PI3Kδ inhibitory activity (IC50)
In short: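 Luminescent ADP-Glo readout of PI3Kδ: after a 60 min RT reaction with PI/ATP substrate, ATP depletion (40 min) and ADP detection (40 min) steps followed. Compounds tested as eight five-fold serial dilutions; inhibition rates fitted to log(inhibitor) vs. response, variable slope, for IC50.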

[2] = system: MIA PaCa-2-AMGR drug-resistant cell line; assay: MIA PaCa-2-AMGR drug-resistant cell proliferation inhibitory activity test; format: cell-based; conditions: 72 h, MIA PaCa-2-AMGR drug-resistant cells, 3 days incubation, CellTiter-Glo
In short: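 Viability was read by CellTiter-Glo luminescence after 3 days of compound exposure (8 points, 5-fold serial dilution), with IC50 derived relative to untreated control. Cells: AMG510-resistant MIA PaCa-2 (selected stepwise to 1 μM AMG510), 4×10^3/well, DMEM + 10% FBS + 2.5% horse serum, 37° C.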

[3] = target: PI3Kα (Homo sapiens (Human), UniProt P42336); assay: Inhibition of PI3Kα efficacy assay (ADP-Glo kinase assay); format: biochemical; conditions: read-out: PI3Kα inhibitory activity (IC50)
Chain of PI3Kα (P42336 whole entry): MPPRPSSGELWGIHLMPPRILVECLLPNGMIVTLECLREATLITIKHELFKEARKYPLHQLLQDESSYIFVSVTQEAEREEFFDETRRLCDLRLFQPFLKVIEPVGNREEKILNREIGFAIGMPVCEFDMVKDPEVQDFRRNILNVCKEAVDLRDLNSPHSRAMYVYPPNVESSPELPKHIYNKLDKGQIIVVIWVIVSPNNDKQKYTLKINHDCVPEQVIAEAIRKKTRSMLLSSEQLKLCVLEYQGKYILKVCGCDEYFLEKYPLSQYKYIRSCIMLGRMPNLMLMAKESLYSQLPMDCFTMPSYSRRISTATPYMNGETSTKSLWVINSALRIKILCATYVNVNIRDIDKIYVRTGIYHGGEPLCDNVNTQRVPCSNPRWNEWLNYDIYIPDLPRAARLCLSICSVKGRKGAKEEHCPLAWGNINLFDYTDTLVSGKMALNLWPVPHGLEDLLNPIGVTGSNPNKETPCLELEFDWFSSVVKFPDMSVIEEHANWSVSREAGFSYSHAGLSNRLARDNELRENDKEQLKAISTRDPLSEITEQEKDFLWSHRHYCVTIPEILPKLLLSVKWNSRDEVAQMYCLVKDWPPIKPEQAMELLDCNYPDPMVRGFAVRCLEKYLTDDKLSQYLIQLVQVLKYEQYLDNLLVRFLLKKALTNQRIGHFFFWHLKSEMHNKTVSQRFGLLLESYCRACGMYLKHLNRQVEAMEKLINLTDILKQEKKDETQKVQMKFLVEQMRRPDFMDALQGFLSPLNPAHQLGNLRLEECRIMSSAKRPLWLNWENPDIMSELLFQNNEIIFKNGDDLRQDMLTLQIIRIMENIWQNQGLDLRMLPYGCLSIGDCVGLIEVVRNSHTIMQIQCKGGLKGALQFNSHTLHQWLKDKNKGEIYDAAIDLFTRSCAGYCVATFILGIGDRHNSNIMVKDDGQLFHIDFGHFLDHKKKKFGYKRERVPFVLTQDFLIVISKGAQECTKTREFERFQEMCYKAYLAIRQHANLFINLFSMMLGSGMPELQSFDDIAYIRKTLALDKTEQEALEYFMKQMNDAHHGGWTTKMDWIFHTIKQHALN
Chain of PI3Kα (P27986 whole entry partner): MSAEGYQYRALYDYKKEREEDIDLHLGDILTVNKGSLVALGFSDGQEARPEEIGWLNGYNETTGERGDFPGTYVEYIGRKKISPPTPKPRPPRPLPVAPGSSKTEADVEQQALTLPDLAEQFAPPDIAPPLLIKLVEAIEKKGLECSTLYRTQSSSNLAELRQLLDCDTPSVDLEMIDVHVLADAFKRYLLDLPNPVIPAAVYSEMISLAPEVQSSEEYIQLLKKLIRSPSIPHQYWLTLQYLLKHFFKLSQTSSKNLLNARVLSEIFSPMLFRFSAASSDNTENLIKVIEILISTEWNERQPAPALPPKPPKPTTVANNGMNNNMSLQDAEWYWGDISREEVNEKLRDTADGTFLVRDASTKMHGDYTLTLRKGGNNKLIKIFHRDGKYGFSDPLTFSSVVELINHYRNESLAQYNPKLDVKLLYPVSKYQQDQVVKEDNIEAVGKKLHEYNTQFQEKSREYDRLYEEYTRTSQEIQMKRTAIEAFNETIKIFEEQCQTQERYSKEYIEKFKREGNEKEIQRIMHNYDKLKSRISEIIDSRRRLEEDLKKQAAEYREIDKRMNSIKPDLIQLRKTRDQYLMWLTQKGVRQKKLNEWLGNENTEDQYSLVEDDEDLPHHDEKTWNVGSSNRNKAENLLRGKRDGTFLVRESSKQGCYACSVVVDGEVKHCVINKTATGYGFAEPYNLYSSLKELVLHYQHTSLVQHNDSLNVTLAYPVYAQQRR
In short: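 Eight five-fold dilutions of compound (2 mM DMSO stock) tested; kinase reaction with PI and ATP ran 60 min at RT, followed by ADP-Glo and detection reagent steps of 40 min each. Four-parameter logistic fitting gave IC50 values.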

[4] = system: NCI-H358 cells (KRAS G12C mutant); assay: NCI-H358 cell proliferation inhibition (CellTiter-Glo); format: cell-based; conditions: Homo sapiens, NCI-H358, 72 h; H358 cells (G12C mutation), 3 days, Table 6; read-out: NCI-H358 (IC50)

Chain of PI3Kδ (O00329 whole entry): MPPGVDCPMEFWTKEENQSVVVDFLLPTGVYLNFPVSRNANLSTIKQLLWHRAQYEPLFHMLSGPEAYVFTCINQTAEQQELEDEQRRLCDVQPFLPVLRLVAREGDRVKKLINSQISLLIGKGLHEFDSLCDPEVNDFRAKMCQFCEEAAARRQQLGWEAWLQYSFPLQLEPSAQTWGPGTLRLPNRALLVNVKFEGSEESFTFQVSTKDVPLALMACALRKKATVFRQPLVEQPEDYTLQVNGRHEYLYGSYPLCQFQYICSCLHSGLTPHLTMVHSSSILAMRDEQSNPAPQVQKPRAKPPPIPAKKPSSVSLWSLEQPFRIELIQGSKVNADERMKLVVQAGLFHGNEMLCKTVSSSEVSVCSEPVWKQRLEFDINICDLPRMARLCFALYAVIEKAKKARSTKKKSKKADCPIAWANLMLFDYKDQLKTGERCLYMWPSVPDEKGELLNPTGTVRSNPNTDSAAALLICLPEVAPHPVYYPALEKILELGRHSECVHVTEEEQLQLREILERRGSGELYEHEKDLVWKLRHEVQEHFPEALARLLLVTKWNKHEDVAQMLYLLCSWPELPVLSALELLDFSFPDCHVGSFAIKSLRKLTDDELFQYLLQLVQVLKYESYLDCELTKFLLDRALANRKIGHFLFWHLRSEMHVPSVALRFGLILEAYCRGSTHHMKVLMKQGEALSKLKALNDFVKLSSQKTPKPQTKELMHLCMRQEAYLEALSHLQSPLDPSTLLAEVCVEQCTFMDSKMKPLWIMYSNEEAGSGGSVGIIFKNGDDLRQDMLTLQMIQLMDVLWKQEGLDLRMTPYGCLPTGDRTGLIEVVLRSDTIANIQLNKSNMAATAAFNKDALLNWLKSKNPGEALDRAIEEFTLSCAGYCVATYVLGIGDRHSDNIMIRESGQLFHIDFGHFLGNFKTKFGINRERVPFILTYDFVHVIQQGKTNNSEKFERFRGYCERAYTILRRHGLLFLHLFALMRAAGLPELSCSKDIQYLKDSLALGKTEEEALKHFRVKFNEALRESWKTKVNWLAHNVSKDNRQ
Chain of PI3Kδ (P27986 whole entry partner): as the sequence (P27986 whole entry partner) above

Structure (SMILES) | IC50 ([1]; Table 4) [nM] | IC50 [2] [nM] | IC50 ([3]; Table 4) [nM] | IC50 [4] [nM] | IC50 ([1]; Table 2) [nM] | IC50 ([3]; Table 2) [nM] | IC50 ([1]; Table 1) [nM] | IC50 ([3]; Table 1) [nM]
COc1ncc(-c2ccc3ncnc(N4CCC5(CC4)CN(C(=O)/C=C/C(C)=O)C5)c3c2)cc1NS(=O)(=O)c1ccc(F)cc1 [Example 161, (E)-4-fluoro-N-(2-methoxy-5-(4-(2-(4-oxopent-2-enoyl)-2,7-diazaspiro[3.5]nonan-7-yl)quinazolin-6-yl)pyridin-3-yl)benzenesulfonamide] | 9.9 | 55.3 | 0.82 | 43.4 | – | – | – | –
COc1ncc(-c2ccc3ncnc(N4CC5CCC(C4)N5C(=O)/C=C/C(C)=O)c3c2)cc1NS(=O)(=O)c1c(F)cc(F)cc1F [Example 155] | 53.1 | 112 | 0.3 | 40.3 | – | – | – | –
COc1ncc(-c2ccc3ncnc(N4CCC5(CC=CC5=O)CC4)c3c2)cc1NS(=O)(=O)c1ccc(F)cc1F [Example 70, 2,4-difluoro-N-(2-methoxy-5-(4-(1-oxo-8-azaspiro[4,5]dec-2-en-8-yl)quinazolin-6-yl)pyridin-3-yl)benzenesulfonamide] | – | 139 | – | 58.4 | 35 | 8.8 | – | –
COc1ncc(-c2ccc3ncnc(N4CCN(C(=O)/C=C/C(C)=O)CC4)c3c2)cc1NS(=O)(=O)c1c(F)cccc1F [Example 22, (E)-2,6-difluoro-N-(2-methoxy-5-(4-(4-(4-oxopent-2-enoyl)piperazin-1-yl)quinazolin-6-yl)pyridin-3-yl)benzenesulfonamide] | – | 76.7 | – | 23.7 | – | – | 82.8 | 11.6
COc1ncc(-c2ccc3ncnc(N4CCC5(CC4)CN(C(=O)/C=C/C(C)=O)C5)c3c2)cc1NS(=O)(=O)c1c(F)cc(F)cc1F [Example 101, (E)-2,4,6-trifluoro-N-(2-methoxy-5-(4-(2-(4-oxopent-2-enoyl)-2,7-diazaspiro[3.5]nonan-7-yl)quinazolin-6-yl)pyridin-3-yl)benzenesulfonamide] | – | 35.9 | – | 11.6 | 33.6 | 9.9 | – | –
COc1ncc(-c2ccc3ncnc(N4CCN(C(=O)/C=C/n5ccnn5)CC4)c3c2)cc1NS(=O)(=O)c1ccc(F)cc1F [Example 10, (E)-N-(5-(4-(4-(3-(1H-1,2,3-triazol-1-yl)acryloyl)piperazin-1-yl)quinazolin-6-yl)-2-methoxypyridin-3-yl)-2,4-difluorobenzenesulfonamide] | – | 226 | – | 24.6 | – | – | 16.7 | 0.44
COc1ncc(-c2ccc3ncnc(C4CCN(C(=O)/C=C/C(C)=O)CC4)c3n2)cc1NS(=O)(=O)c1ccc(F)cc1F [Example 234, (E)-2,4-difluoro-N-(2-methoxy-5-(4-(1-(4-oxopent-2-enoyl)piperidin-4-yl)pyrido[3,2-d]pyrimidin-6-yl)pyridin-3-yl)benzenesulfonamide] | 20 | 5.3 | 4.2 | 5.5 | – | – | – | –
COc1ncc(-c2ccc3ncnc(N4C5CCC4CN(C(=O)/C=C/C(C)=O)C5)c3c2)cc1NS(=O)(=O)c1ccc(F)cc1F [Example 144, 2,4-difluoro-N-(2-methoxy-5-(4-(3-((E)-4-oxopent-2-enoyl)-3,8-diazabicyclo[3.2.1]octan-8-yl)quinazolin-6-yl)pyridin-3-yl)benzenesulfonamide] | 13.4 | 56.6 | 3.2 | 47.8 | – | – | – | –
COc1ncc(-c2ccc3ncnc(C4=CCN(C(=O)/C=C/C(C)=O)CC4)c3c2)cc1NS(=O)(=O)c1ccc(F)cc1F [Example 198, (E)-2,4-difluoro-N-(2-methoxy-5-(4-(1-(4-oxopent-2-enoyl)-1,2,3,6-tetrahydropyridin-4-yl)quinazolin-6-yl)pyridin-3-yl)benzenesulfonamide] | 13.3 | 10.7 | 1.1 | 12.2 | – | – | – | –
COc1ncc(-c2ccc3ncnc(N4CCN(C(=O)/C=C/C(C)=O)C[C@@H]4C)c3c2)cc1NS(=O)(=O)c1c(F)cc(F)cc1F [Example 154, (S,E)-2,4,6-trifluoro-N-(2-methoxy-5-(4-(2-methyl-4-(4-oxopent-2-enoyl)piperazin-1-yl)quinazolin-6-yl)pyridin-3-yl)benzenesulfonamide] | 13.8 | 32.2 | 0.54 | 16.7 | – | – | – | –
COc1ncc(-c2ccc3ncnc(N4CCN(C(=O)/C=C/C(C)=O)CC4)c3c2)cc1NS(=O)(=O)c1ccc(F)cc1Cl [Example 169, (E)-2-chloro-4-fluoro-N-(2-methoxy-5-(4-(4-(4-oxopent-2-enoyl)piperazin-1-yl)quinazolin-6-yl)pyridin-3-yl)benzenesulfonamide] | 18.9 | 54.4 | 3.8 | 5.7 | – | – | – | –
COc1ncc(-c2ccc3ncnc(N4CCN(C(=O)/C=C/C(C)=O)[C@H](C)C4)c3n2)cc1NS(=O)(=O)c1ccccc1F [Example 228, (R,E)-2-fluoro-N-(2-methoxy-5-(4-(3-methyl-4-(4-oxopent-2-enoyl)piperazin-1-yl)pyrido[3,2-d]pyrimidin-6-yl)pyridin-3-yl)benzene-sulfonamide] | 15.9 | 13.5 | 2.8 | 13.2 | – | – | – | –
C=CC(=O)N1CCN(c2ncnc3ccc(-c4cnc(OC)c(NS(=O)(=O)c5ccc(F)cc5F)c4)cc23)[C@@H](C)C1 [Example 7, (S)—N-(5-(4-(4-acryloyl-2-methylpiperazin-1-yl)quinazolin-6-yl)-2-methoxypyridin-3-yl)-2,4-difluorobenzenesulfonamide] | – | 222 | – | 44 | – | – | 12 | 1.4
COc1ncc(-c2ccc3ncnc(N4CCN(C(=O)/C=C/C(C)=O)CC4)c3c2)cc1NS(=O)(=O)c1ncc(Cl)s1 [Example 165, (E)-5-chloro-N-(2-methoxy-5-(4-(4-(4-oxopent-2-enoyl)piperazin-1-yl)quinazolin-6-yl)pyridin-3-yl)thiazole-2-sulfonamide] | 12 | 173 | 1.2 | 36.5 | – | – | – | –
COc1ncc(-c2ccc3ncnc(N4CCN(C(=O)/C=C/C(C)=O)C[C@@H]4C)c3c2)cc1NS(=O)(=O)c1sc(C)nc1C [Example 173, (S,E)-N-(2-methoxy-5-(4-(2-methyl-4-(4-oxopent-2-enoyl)piperazin-1-yl)quinazolin-6-yl)pyridin-3-yl)-2,4-dimethyl-thiazole-5-sulfonamide] | 16.5 | 62.6 | 2.2 | 6.8 | – | – | – | –
COc1ncc(-c2ccc3ncnc(N4CCC5(CC4)CN(C(=O)/C=C/C(C)=O)C5)c3c2)cc1NS(=O)(=O)c1ccc(F)cc1F [Example 20, (E)-2,4-difluoro-N-(2-methoxy-5-(4-(2-(4-oxopent-2-enoyl)-2,7-diazaspiro[3.5]nonan-7-yl)quinazolin-6-yl)pyridin-3-yl)benzenesulfonamide] | – | 111 | – | 26.2 | – | – | 212 | 7.4
COc1ncc(-c2ccc3ncnc(N4CCN(C(=O)/C=C/C(C)=O)CC4)c3c2)cc1NS(=O)(=O)c1ccncc1C [Example 172, (E)-N-(2-methoxy-5-(4-(4-(4-oxopent-2-enoyl)piperazin-1-yl)quinazolin-6-yl)pyridin-3-yl)-3-methyl-pyridine-4-sulfonamide] | 11.3 | 256 | 4.1 | 68.1 | – | – | – | –
COc1ncc(-c2ccc3ncnc(N4CCN(C(=O)/C=C/C(C)=O)CC4)c3c2)cc1NS(=O)(=O)c1ccc(C#N)cc1F [Example 123, (E)-4-cyano-2-fluoro-N-(2-methoxy-5-(4-(4-(4-oxopent-2-enoyl)piperazin-1-yl)quinazolin-6-yl)pyridin-3-yl)benzenesulfonamide] | – | 328 | – | 21.2 | 31.4 | 9.1 | – | –
COc1ncc(-c2ccc3ncnc(N4CCN(C(=O)/C=C/C(C)=O)C[C@@H]4C)c3c2)cc1NS(=O)(=O)c1ccccc1F [Example 152, (S,E)-2-fluoro-N-(2-methoxy-5-(4-(2-methyl-4-(4-oxopent-2-enoyl)piperazin-1-yl)quinazolin-6-yl)pyridin-3-yl)benzenesulfonamide] | 15.5 | 52.1 | 0.28 | 29.8 | – | – | – | –
COc1ncc(-c2ccc3ncnc(N4CC5CCC(C4)N5C(=O)/C=C/C(C)=O)c3c2)cc1NS(=O)(=O)c1c(F)cccc1F [Example 145, 2,6-difluoro-N-(2-methoxy-5-(4-(8-((E)-4-oxopent-2-enoyl)-3,8-diazabicyclo[3.2.1]octan-3-yl)quinazolin-6-yl)pyridin-3-yl)benzenesulfonamide] | 23.8 | 113 | 0.44 | 36.2 | – | – | – | –
COc1ncc(-c2ccc3ncnc(N4CCN(C(=O)/C=C/C(C)=O)CC4)c3n2)cc1NS(=O)(=O)c1c(F)cccc1Cl [Example 225, (E)-2-chloro-6-fluoro-N-(2-methoxy-5-(4-(4-(4-oxopent-2-enoyl)piperazin-1-yl)pyrido[3,2-d]pyrimidin-6-yl)pyridin-3-yl) benzene-sulfonamide] | 8.9 | 26 | 0.5 | 13.5 | – | – | – | –
